Values after ≈ are worked out from the molar mass of the structure shown. Like-named read-outs stand apart in the source and are kept apart here.
Test: Saturation solubility of enavogliflozin in aqueous excipient solutions (HPLC)
Format: physicochemical
Settings: for solubility at 12 h: aqueous excipient solution (excipient in purified water), thermodynamic from solid
Procedure: According to Table 1 below, enavogliflozin in the amount corresponding to each standard solution and 70 mL of methanol were placed in a volumetric flask and then completely dissolved under ultrasonic agitation. Methanol was added thereto to adjust the total volume to 100 mL. The resulting solution was taken and filtered through a 0.45 µm RC (Regenerated Cellulose) membrane filter. The first 2 mL was discarded and then the filtrate was used as a standard solution.
Each excipient was dissolved in 5 mL of purified water at the maximum concentration recommended by the FDA (Table 2) and then enavogliflozin was added thereto until it was no longer dissolved, followed by stirring for approximately 12 hours. After confirming no dissolution after 12 hours, each sample was centrifuged at 4000 rpm for 30 minutes and the clear supernatant (1 mL) was taken and then diluted with methanol. The resulting solution was filtered through a 0.45 µm RC membrane filter. The first 2 mL was discarded and then the filtrate was used as a test solution.
The peak areas of the standard and test solutions were analyzed under the following HPLC conditions. • Detector: UV spectrophotometer (wavelength: 225 nm) • Column: Capcellpak C18 (4.6 x 250 mm, 5 µm) • Column temperature: about 35°C • Sample temperature: about 25°C • Mobile phase: Buffer solution : acetonitrile = 25 : 75 (v/v) (Buffer solution: prepared by dissolving 100 µl of trifluoroacetic acid in 1000 mL of water) • Flow rate: 1.0 mL/min • Injection volume: 10 µL • Analysis time: about 20 minutes
Polyoxyl 40 stearate (Myrj™ S40) was dissolved in 5 mL of purified water at the concentration of 7.0 w/v% and then enavogliflozin was added thereto until it was no longer dissolved, followed by stirring for approximately 12 hours. Thereafter, the degree of solubilization was evaluated in the same manner as in Example 1.

For `OC[C@H]1O[C@@H](c2cc(Cc3ccc(C4CC4)cc3)c(Cl)c3c2CCO3)[C@H](O)[C@@H](O)[C@@H]1O` [enavogliflozin, Enavogliflozin], the “Solubility for unit concentration” value (Aqualon™ CMC 0.50 %w/v) was 0.59 mg/%, the “Solubility for unit concentration” value (Cavasol™ W8 1.50 %w/v) was 0.72 mg/% and the “Solubility for unit concentration” value (EtOH 0.50 %w/v) was 0.51 mg/%. The “Solubility for unit concentration” value (Glycerol 2.25 %w/v) was 0.11 mg/%, the “Solubility for unit concentration” value (HPMC 606 0.60 %w/v) was 0.56 mg/% and the “Solubility for unit concentration” value (Kollidon™ K30 15.00 %w/v) was 0.24 mg/%. The “Solubility for unit concentration” value (Kollidon™ K90 1.50 %w/v) was 0.41 mg/%, the “Solubility for unit concentration” value (Kolliphor™ EL 5.00 %w/v) was 3.37 mg/% and the “Solubility for unit concentration” value (Kolliphor™ HS 15 0.25 %w/v) was 4.09 mg/%. For the same molecule, the “Solubility for unit concentration” value (Kolliphor™ RH 40 1.00 %w/v) was 3.64 mg/%, the “Solubility for unit concentration” value (Kollisolv™ PG 1.50 %w/v) was 0.18 mg/% and the “Solubility for unit concentration” value (PEG 400 4.00 %w/v) was 0.08 mg/%. The “Solubility for unit concentration” value (TPGS 0.50 %w/v) was 4.63 mg/%, the “Solubility for unit concentration” value (Tween™ 20 0.05 %w/v) was 7.21 mg/% and the “Solubility for unit concentration” value (Tween™ 80 4.00 %w/v) was 3.95 mg/%. For the same molecule, the solubility at 12 h (aqueous with cosolvent or surfactant or cyclodextrin, Aqualon™ CMC 0.50 %w/v in purified water, read-out: Saturation solubility) was 300 µg/mL (≈ 671 µM), the solubility at 12 h (aqueous with cosolvent or surfactant or cyclodextrin, Cavasol™ W8 1.50 %w/v in purified water, read-out: Saturation solubility) was 1090 µg/mL (≈ 2440 µM) and the solubility at 12 h (aqueous with cosolvent or surfactant or cyclodextrin, HPMC 606 0.60 %w/v in purified water, read-out: Saturation solubility) was 330 µg/mL (≈ 738 µM). It also gave a solubility at 12 h (aqueous with cosolvent or surfactant or cyclodextrin, Kollidon™ K30 15.00 %w/v in purified water, read-out: Saturation solubility) of 3600 µg/mL (≈ 8060 µM), a solubility at 12 h (aqueous with cosolvent or surfactant or cyclodextrin, Kollidon™ K90 1.50 %w/v in purified water, read-out: Saturation solubility) of 620 µg/mL (≈ 1390 µM) and a solubility at 12 h (aqueous with cosolvent or surfactant or cyclodextrin, Kolliphor™ EL 5.00 %w/v in purified water, read-out: Saturation solubility) of 16800 µg/mL (≈ 37700 µM). For the same molecule, the solubility at 12 h (aqueous with cosolvent or surfactant or cyclodextrin, Kolliphor™ EL 5.0 w/v% in purified water, read-out: Saturation solubility of enavogliflozin) was 16800 µg/mL (≈ 37700 µM), the solubility at 12 h (aqueous with cosolvent or surfactant or cyclodextrin, Kolliphor™ HS 15 0.25 %w/v in purified water, read-out: Saturation solubility) was 1020 µg/mL (≈ 2280 µM) and the solubility at 12 h (aqueous with cosolvent or surfactant or cyclodextrin, Kolliphor™ RH 40 1.00 %w/v in purified water, read-out: Saturation solubility) was 3640 µg/mL (≈ 8140 µM). For the same molecule, the solubility at 12 h (aqueous with cosolvent or surfactant or cyclodextrin, Polyoxyl 40 stearate 7.0 w/v% in purified water, read-out: Saturation solubility of enavogliflozin) was 32000 µg/mL (≈ 71600 µM), the solubility at 12 h (aqueous with cosolvent or surfactant or cyclodextrin, TPGS 0.50 %w/v in purified water, read-out: Saturation solubility) was 2310 µg/mL (≈ 5170 µM) and the solubility at 12 h (aqueous with cosolvent or surfactant or cyclodextrin, Tween™ 20 0.05 %w/v in purified water, read-out: Saturation solubility) was 360 µg/mL (≈ 806 µM). For the same molecule, the solubility at 12 h (aqueous with cosolvent or surfactant or cyclodextrin, Tween™ 80 4.00 %w/v in purified water, read-out: Saturation solubility) was 15800 µg/mL (≈ 35400 µM), the solubility at 12 h (water, EtOH 0.50 %w/v in purified water, read-out: Saturation solubility) was 260 µg/mL (≈ 582 µM) and the solubility at 12 h (water, Glycerol 2.25 %w/v in purified water, read-out: Saturation solubility) was 240 µg/mL (≈ 537 µM). The solubility at 12 h (water, Kollisolv™ PG 1.50 %w/v in purified water, read-out: Saturation solubility) was 270 µg/mL (≈ 604 µM) and the solubility at 12 h (water, PEG 400 4.00 %w/v in purified water, read-out: Saturation solubility) was 330 µg/mL (≈ 738 µM).

Reference: patent EP4631498A1, “EYE DROP-TYPE PHARMACEUTICAL COMPOSITION CONTAINING ENVOGLIFLOZIN” (Daewoong Therapeutics Inc., priority 2022, dated 2024)
